# Data taken from patent publication US20240082238A1, “COMPOSITIONS AND METHODS FOR TREATING CANCER” (UNIVERSITY OF IOWA RESEARCH FOUNDATION, priority 2021, published 2024).
# How the values were obtained:
# [1] = tested on: Hec50co tumors; assay: In vivo tumor accumulation of PTX-OG after peritumoral SC injection; parameters: species or system athymic Nu/Nu mice; conditions: 0.1 mg/kg PTX-OG SC peritumoral, 24 h
# Description: Effect of drug combination on the in vivo tumor accumulation of PTX In this study, athymic Nu/Nu mice were challenged with 1×10^6 of Hec50co tumor cells per mouse on day zero of the experiment. When the tumor grew to a palpable size range of 100-150 mm^3, as measured by Equation 2, treatments were administered SC at the tumor site (peritumoral). Treatment groups (n=3 per group) included: (i) DPBS treated mice, 0.1 mg/kg PTX-OG, and 0.1 mg/kg PTX-OG+5 mg/kg CIP2b. After 24 hours, mice were euthanized, and tumors were collected and submerged in Hank's Balanced Salt Solution (HBSS) with calcium and magnesium. Tumors were then taken out of HBSS (one at a time to maintain cell viability), placed on a Petri dish, and mechanically minced with a sterile scalpel and forceps into small pieces. Tumor pieces were transferred to 50 mL tubes containing 10 mL of the pre-warmed (37° C.) sterile cell dissociation buffer (HBSS containing 50,000 U of collagenase IV and 100,000 U of DNase I). Samples were incubated at 37° C. under continuous rotation at 300 rpm for 60 minutes in the incubator-shaker. Then, cell suspensions were filtered through a 70 μm cell strainer then a 40 μm cell strainer to remove any aggregates. […] Finally, cell suspensions were acquired using a FACSCalibur flow cytometer, and data were analyzed using FlowJo software.
# [2] = tested on: tubulin; assay: Fluorescence-based tubulin polymerization assay; type: biochemical; conditions: 3 μM
# From the text: Tubulin polymerization assay. Microtubules are one of the major cytoskeleton components in the cells, and they play an essential role in the spindle formation generated by α and β tubulin polymerization. Agents targeting microtubules function through two different mechanisms. To elaborate, several compounds like taxanes (e.g., PTX) promote the assembly of microtubules and are known to stabilize the microtubes whereas other compounds such as vinca alkaloid and colchicine are known to interrupt the spindle formation via inhibiting the tubulin polymerization; thereby, destabilize the microtubules. The result of both scenarios is metaphase arrest which induces apoptosis. To test the tubulin activity, a fluorescence-based tubulin polymerization assay (Cat. No. BK011P, Cytoskeleton Inc., Denver, CO) was performed according to the manufacturer's instructions. Briefly, stock solutions of PTX and CIP2b (in DMSO) were diluted with UltraPure™ water to make a final concentration of 3 μM. […] Before starting the experiment, the 96-well plate and fluorimeter (SpectraMax M5 Microplate Reader) were pre-warmed to 37° C. […] Samples and tubulin were added to a 96-well plate, and the plate was inserted into the plate reader. Kinetic measurements started immediately, and data were collected and analyzed.
# [3] = tested on: Hec50co cells; assay: Intracellular accumulation of PTX-OG (flow cytometry, confocal microscopy); type: cell-based, human; conditions: 400 nM PTX-OG alone, 2 h
# Description: Intracellular accumulation of PTX using flow cytometer. To evaluate PTX cellular accumulation in the presence or absence of CIP2b, Hec50co cells were seeded at a density of 200,000 cells per well in 6-well plates in complete medium and incubated for 24 h. Afterward, the medium was removed, and a DMSO-based solution (0.1 mg/mL) of fluorescently labeled PTX (PTX-OG) was added at 400 nM per well, and the volume was completed to 2 mL with the medium. Also, CIP2b (in DMSO) was added at 4 or 40 μM, either alone or in combination with PTX-OG. After 2 h, the medium was removed, the cells were washed thoroughly with DPBS, trypsinized, and collected by centrifugation (230 xg, 5 min). Finally, cells were analyzed by flow cytometry (FACScan).
# Intracellular accumulation of PTX using confocal microscopy. Intracellular accumulation of PTX co-delivered with CIP2b was also studied qualitatively in Hec50co cells using confocal microscopy. […]
# In vitro activity of CIP2b NPs. […] An equivalent quantity of blank NPs was also tested to account for the effect of the PLGA NPs alone without CIP2b. […] An equivalent quantity of blank NPs was also added, either alone or with PTX-OG. Samples were then analyzed using a flow cytometer, as described above.
compound,measurement,setting,value
"CC(=O)O[C@H]1C(=O)[C@@]2(C)[C@H]([C@H](OC(=O)c3ccccc3)[C@]3(O)C[C@H](OC(=O)[C@H](O)[C@@H](NC(=O)c4ccccc4)c4ccccc4)C(C)=C1C3(C)C)[C@]1(OC(C)=O)CO[C@@H]1C[C@@H]2O [PTX, paclitaxel]",in vivo intracellular accumulation of PTX-OG by tumor cells vs untreated control,[1],marginal in vivo intracellular accumulation
same,rate of tubulin polymerization,[2],promoted
same,onset of tubulin polymerization,[2]; tubulin alone 15 min,approximately 5 minutes
same,cellular uptake of PTX-OG,[3],readily taken up
